Source: patent US4500525A, “Pharmacologically active pyrazolo/4,3-c/pyridines” (Gruppo Lepetit S.p.A., priority 1982, dated 1985)
Structures can show the parent of a compound that is named as a salt. Each block holds one compound with its values, some of them ahead of it.

Columns and labels:
mice = test: pole climbing avoidance test; type: in vivo; details: i.p., treated/untreated mice
Description: The neuroleptic activity of the compounds of the invention was investigated by means of the "pole climbing avoidance test", as described by L. Cook et al. (Ann. N.Y. Acad. Sci. 66, 740, 1957) and subsequently modified by Maffii et al. (J. Pharm. Pharmac., 11, 129, 1959). As a representative example, the compound of example 38 scores as follows in the above test:
The symbols CR, CR2, and UR corresponds to the primary, secondary conditioned response and to the unconditioned response according to the above test.

renal hypertensive dogs = test: lowering of blood pressure in renal hypertensive dogs; type: in vivo, dog
Experimental: In renal hypertensive dogs, preparated essentially according to H. Golblatt, J. Linch. and R. F. Manzal, J. Exp. Med. 59, 347 (1934), some of the compounds of the invention show a considerable lowering of the systolic blood pressure without affecting the heart rate to a great extent.
The test compounds are administered orally and the pressure is measured according to the method of H. Friebel, E. Vrenden, Arch. Exp. Phat. Pharmak. 232, 419 ([…]).
In the above test system the compound of example 100 determines a 20% drop of the blood pressure when administered 0.5 mg/kg p.o., the compound of example 106 determines a 22% drop when administered 1 mg/kg p.o., the compounds of Examples 134 and 135 determine a drop of 34% and 25%, respectively, when administered 5 mg/kg p.o., and the compound of example 107 determines a 43% drop of the blood pressure when administered 10 mg/kg p.o.

α1 adrenoceptor = test: displacement of ^3 H-prazosin specifically bound in rat brain homogenate (radioligand binding); details: ^3 H Prazosin binding, Ki calculated from IC50, read-out: K1 (nM) ^3 H Prazosin
Experimental: The compounds of the invention were tested […] for their ability to compete with labelled ligands of α1, α2 -adrenergic,and dopaminergic receptors. Said tests were made essentially following:
(b) the method described by P. Greengrass et al., European Journal of Pharmacology, Vol. 55, pp. 323-326, (1979), which uses the specific displacement of ^3 H-prazosin specifically bound in rat brain homogenate, for the identification of substances interacting with the so called "α1 "adrenoceptor;
The above mentioned methods are radioligand binding assays and are based on the knowledge that many natural or synthetic physiologically active substances such as neurotransmitters, hormones, and others, specifically link to cellular receptors, generally of proteic nature. They are generally obtained from a tissue or organ of a suitable test-animal after isolation and homogenization of said tissue or organ.
The homogenate is twice centrifugated to separate and partially purify the receptorial fraction (synaptosomes).
The labelled substances employed are known to specifically bind their receptors, so the drug-receptor dissociation constants obtained for each test compound under standard conditions are a measure of their actual binding affinities. The validation of the above methods in predicting a possible pharmacological activity was carried out comparing the in vitro binding constants of a number of […] agonist or antagonist of the adrenergic or dopaminergic system with their in vivo activities. The α1 -adrenergic activity is essentially correlated with a peripheral vasodilatation. The α2 -adrenergic activity is essentially correlated with a hypotensive action of central origin, and the dopaminergic activity is correlated with a neuroleptic action. IC50 values, defined as the drug concentration that cause 50% inhibition of the specific ^3 H ligant binding, are observed by incubating from 5 to 7 different dilutions of the tested compound in duplicate or triplicate. Ki, inhibition constant, values are calculated from the following formula: [formula] wherein IC50 is defined as above, C is the concentration of the ^3 H ligand, and KD is the dissociation constant of the ^3 H ligand-receptor complex.

[1] = tested on: spontaneously hypertensive rat; test: lowering of arterial pressure in the spontaneously hypertensive rat; type: in vivo; details: p.o. 50 mg/kg
Experimental: Journal, Vol. 27, p. 282, (1963). The arterial pressure was evaluated according to H. Fribel, E. Vredom, described in Arch. Exp. Phat. Pharmak. Vol. 232, p. 416, (1958). […] This 15% threshold is generally considered predictive of significant antihypertensive activity.

[2] = positive inotropic activity in conventional in vitro tests (isolated preparation)

SMILES: CN1CCc2[nH]nc(-c3ccc(F)cc3)c2C1 [Example 38, 3-(4-fluorophenyl)-5-methyl-4,5,6,7-tetrahydro-1H-pyrazolo/4,3-c/pyridine]
CR2 (secondary conditioned response) (mice; 10 mg/kg): 9/10 | CR (primary conditioned response) (mice; 10 mg/kg): 3/10 | UR (unconditioned response) (mice; 10 mg/kg): 0/10 | CR2 (secondary conditioned response) (mice; 25 mg/kg): 10/10 | CR (primary conditioned response) (mice; 25 mg/kg): 8/10 | UR (unconditioned response) (mice; 25 mg/kg): 0/10

SMILES: Fc1ccc(-c2nn(Cc3ccccc3)c3c2CNCC3)cc1 [Example 100, 3-(4-fluorophenyl)-1-phenylmethyl-4,5,6,7-tetrahydro-1H-pyrazolo/4,3-c/pyridine, hydrochloride]
drop of the blood pressure (renal hypertensive dogs; 0.5 mg/kg p.o.): 20% | Ki (α1 adrenoceptor): 14.7 nM | lowering of the pressure [1]: 30%

SMILES: CCn1nc(-c2cccs2)c2c1CCNC2 [Example 102, 1-ethyl-3-(2-thienyl)-4,5,6,7-tetrahydro-1H-pyrazolo/4,3-c/pyridine, methanesulfonate]
positive inotropic activity [2]: good positive inotropic activity | antagonism of the inotropic activity by propanolol (β-adrenergic effects) ([2]; propanolol): not antagonized by propanolol

Ki (α1 adrenoceptor): 0.331 nM
SMILES: Fc1ccc(Cn2nc(-c3ccc(F)cc3)c3c2CCNC3)cc1 [Example 106]
drop of the blood pressure (renal hypertensive dogs; 1 mg/kg p.o.): 22%

Ki (α1 adrenoceptor): 23.6 nM
SMILES: Cc1ccc(Cn2nc(-c3ccc(F)cc3)c3c2CCNC3)cc1 [Example 107, 3-(4-fluorophenyl)-1-(4-methylphenylmethyl)-4,5,6,7-tetrahydro-1H-pyrazolo/4,3-c/pyridine, methanesulfonate]
drop of the blood pressure (renal hypertensive dogs; 10 mg/kg p.o.): 43%

Ki (α1 adrenoceptor): 6.35 nM
SMILES: CN1CCc2c(c(-c3ccc(F)cc3)nn2Cc2ccc(F)cc2)C1 [Example 134, 3-(4-fluorophenyl)-1-(4-fluorophenylmethyl)-5-methyl-4,5,6,7-tetrahydro-1H-pyrazolo/4,3-c/pyridine, hydrochloride]
drop of the blood pressure (renal hypertensive dogs; 5 mg/kg p.o.): 34%

Ki (α1 adrenoceptor): 47.2 nM
SMILES: Cc1ccc(Cn2nc(-c3ccc(F)cc3)c3c2CCN(C)C3)cc1 [Example 135, 3-(4-fluorophenyl)-1-(4-methylphenylmethyl)-5-methyl-4,5,6,7-tetrahydro-1H-pyrazolo/4,3-c/pyridine, methanesulfonate]
drop of the blood pressure (renal hypertensive dogs; 5 mg/kg p.o.): 25%
